Patent US20210315837A1, “CANNABINOIDS FOR THE TREATMENT OF GRAM-POSITIVE INFECTIONS INCLUDING ANTIBIOTIC-RESISTANT BACTERIAL STRAINS” (priority 2018, published 2021)
In brackets after ≈: the same amount, converted by molar mass. Several values for one entry are separate records, joined by “and”; a condition that tells them apart may be missing. Identical values can stand only once. Like-named read-outs stand apart in the source and are kept apart here.

Tests used:
MRS 1696 = assay: Growth inhibition of cannabinoid combinations, IC50s chosen for FICs, MRS 1696; type: cell-based; conditions: Staphylococcus aureus
MRS 1708 = assay: Growth inhibition of cannabinoid combinations, IC50s chosen for FICs, MRS 1708; type: cell-based; conditions: Staphylococcus aureus
MRS USA 400 = assay: IC50, MIC and MBC against MRS USA 400; type: cell-based, Staphylococcus aureus
Protocol: (§1) As used herein, the term “minimum inhibitory concentration (MIC)” refers to the lowest concentration of an antimicrobial agent that will inhibit the visible growth of a microorganism after overnight incubation. MIC values against bacteria may be determined by standard methods. See also P. A. Wayne, Methods for Dilution Antimicrobial Tests for Bacteria that Grow Aerobically; Approved Standard, Ninth Edition, 2012, CLSI Document M07-A9, Vol. 32 No. 2, which is incorporated by reference herein in its entirety.

MRS USA 300 = assay: IC50, MIC and MBC against MRS USA 300; type: cell-based, Staphylococcus aureus
Protocol: as §1

[1] = test system: MRS 1708 (Mupirocin-resistant); assay: IC50, MIC and MBC against MRS 1708 (Mupirocin-resistant); type: cell-based, Staphylococcus aureus; conditions: for IC50 / MBC / MIC: Staphylococcus aureus
Protocol: as §1

MRS 33591 [2] = assay: Growth inhibition of cannabinoid combinations, IC50s chosen for FICs, MRS 33591; type: cell-based; conditions: Staphylococcus aureus
S. aureus 29213 = assay: IC50, MIC and MBC against S. aureus 29213; type: cell-based; conditions: Staphylococcus aureus; for IC50: 29213; for MIC: S. aureus 29213, tested Conc. in μg/mL, read-out: MIC
Protocol: As used herein, the term “minimum inhibitory concentration (MIC)” refers to the lowest concentration of an antimicrobial agent that will inhibit the visible growth of a microorganism after overnight incubation. MIC values against bacteria may be determined by standard methods.

MRS 33591 [3] = assay: IC50, MIC and MBC against MRS 33591; type: cell-based, Staphylococcus aureus
Protocol: as §1

Mupirocin-resistant MRS = type: cell-based, Staphylococcus aureus; conditions: in combination with Mupirocin
MRS 1717 = assay: Growth inhibition of cannabinoid combinations, IC50s chosen for FICs, MRS 1717; type: cell-based; conditions: Staphylococcus aureus
[4] = read-out: IC50, Cannabidiol (CBD) + Cannabigerol (CBG)
[5] = read-out: IC50, Cannabinol (CBN) + Cannabigerol (CBG)
[6] = IC50 of first-named cannabinoid at the fixed ug/mL of the second given in the label, read-out: IC50, Cannabinol (CBN) + Cannabigerol (CBG)
[7] = MRS USA 400, tested Conc. in μg/mL
[8] = MRS USA 300, tested Conc. in μg/mL
[9] = MRS 33591, tested Conc. in μg/mL
[10] = read-out: IC50, Cannabidiol (CBD) + Cannabinol (CBN)

With `CCCCCc1cc(O)c(C/C=C(\C)CCC=C(C)C)c(O)c1` [CBG, Cannabigerol] the IC50 (MRS 1696; [4]) was 0.9 µg/mL, the IC50 (MRS 1696; [5]) was 0.896 µg/mL and the IC50 (MRS 1708; [6]) was 0.872 µg/mL. For the same compound, the IC50 (MRS 1708; read-out: IC50, Cannabidiol (CBD) + Cannabigerol (CBG), IC50 of first-named cannabinoid at the fixed ug/mL of the second given in the label) was 0.959 µg/mL, the MIC (MRS USA 400; [7]) was 1.67 and the IC50 (MRS USA 400; Staphylococcus aureus, USA400) was 2.72 µM and 0.86 µg/mL. For the same compound, the MBC (MRS USA 400; Staphylococcus aureus, USA400) was > 63 µM, the MIC (MRS USA 400; Staphylococcus aureus, USA400) was 5.28 ± 2.27 µM (≈ 1.67 µg/mL) and the MIC (MRS USA 300; [8]) was 1.67. For the same compound, the IC50 (MRS USA 300; Staphylococcus aureus, USA300) was 2.43 µM and 0.77 µg/mL, the MBC (MRS USA 300; Staphylococcus aureus, USA300) was > 63 µM and the MIC (MRS USA 300; Staphylococcus aureus, USA300) was 5.28 ± 2.27 µM (≈ 1.67 µg/mL). The IC50 [1] was 2.34 µM and 0.74 µg/mL, the MBC [1] was > 63 µM and the MIC [1] was 3.95 µM (≈ 1.25 µg/mL). The IC50 (MRS 33591 [2]; [4]) was 1.08 µg/mL, the IC50 (MRS 33591 [2]; [5]) was 1.05 µg/mL and the IC50 (S. aureus 29213) was 0.75 µg/mL (≈ 2.37 µM). For the same compound, the MIC (S. aureus 29213) was 1.25 µg/mL (≈ 3.95 µM), the MBC (MRS 33591 [3]; [9]) was 3.75 and the IC50 (MRS 33591 [3]; Staphylococcus aureus) was 2.31 µM and 0.73 µg/mL. For the same compound, the MBC (MRS 33591 [3]; Staphylococcus aureus) was 11.8 ± 5.59 µM (≈ 3.75 µg/mL), the MIC (MRS 33591 [3]; Staphylococcus aureus) was 3.95 µM and 1.25 µg/mL and the “effect of combination with Mupirocin” value (Mupirocin-resistant MRS) was “no effect”. For the same compound, the IC50 (MRS 1717; [4]) was 0.741 µg/mL and the IC50 (MRS 1717; [5]) was 0.911 µg/mL.
For `CCCCCc1cc(O)c2c(c1)OC(C)(C)c1ccc(C)cc1-2` [CNB, Cannabinol], the IC50 (MRS 1696; [10]) was 1.5 µg/mL, the IC50 (MRS 1696; [5]) was 1.32 µg/mL and the IC50 (MRS 1708; [6]) was 1.07 µg/mL. It also gave an IC50 (MRS 1708; read-out: IC50, Cannabidiol (CBD) + Cannabinol (CBN), IC50 of first-named cannabinoid at the fixed ug/mL of the second given in the label) of 0.956 µg/mL, an MBC (MRS USA 400; [7]) of 5.83 ± 3.82 and an MIC (MRS USA 400; [7]) of 2.5 ± 0. The IC50 (MRS USA 400; Staphylococcus aureus, USA400) was 4.16 µM and 1.29 µg/mL, the MBC (MRS USA 400; Staphylococcus aureus, USA400) was 18.8 ± 12.3 µM (≈ 5.83 µg/mL) and the MIC (MRS USA 400; Staphylococcus aureus, USA400) was 8.05 µM (≈ 2.5 µg/mL). The MBC (MRS USA 300; [8]) was 3.33, the MIC (MRS USA 300; [8]) was 2.5 ± 0 and the IC50 (MRS USA 300; Staphylococcus aureus, USA300) was 3.32 µM and 1.03 µg/mL. For the same compound, the MBC (MRS USA 300; Staphylococcus aureus, USA300) was 10.7 ± 4.64 µM (≈ 3.33 µg/mL), the MIC (MRS USA 300; Staphylococcus aureus, USA300) was 8.05 µM (≈ 2.5 µg/mL) and the AMC ([1]; Mupirocin-resistant MRS (Table 11)) was 2.08 ± 0.72. The IC50 [1] was 2.77 µM and 0.86 µg/mL, the MBC [1] was 6.7 ± 2.32 µM (≈ 2.08 µg/mL) and the MIC [1] was 5.38 ± 7.32 µM (≈ 1.67 µg/mL). The IC50 (MRS 33591 [2]; [10]) was 1.09 µg/mL, the IC50 (MRS 33591 [2]; [5]) was 1.11 µg/mL and the IC50 (S. aureus 29213) was 0.92 µg/mL (≈ 2.96 µM). The MIC (S. aureus 29213) was 1.67 µg/mL (≈ 5.38 µM), the MBC (MRS 33591 [3]; [9]) was 4.17 and the IC50 (MRS 33591 [3]; Staphylococcus aureus) was 2.48 µM and 0.77 µg/mL. For the same compound, the MBC (MRS 33591 [3]; Staphylococcus aureus) was 13.4 ± 4.64 µM (≈ 4.17 µg/mL), the MIC (MRS 33591 [3]; Staphylococcus aureus) was 4.03 µM and 1.25 µg/mL and the “effect of combination with Mupirocin” value (Mupirocin-resistant MRS) was “no effect”. The IC50 (MRS 1717; [10]) was 0.908 µg/mL and the IC50 (MRS 1717; [5]) was 1.11 µg/mL.
